“And” between values parts separate entries of the source, which are not always exact repeats. Equal values may be shown once.
Experiments:
Assay type in all cases: in vivo
Varroa destructor [1] = experiment: Inhibition of the reproduction of V. destructor in artificial (gelatine) cells; conditions: for Inhibitory activity in respect of varroa reproduction / Number of offspring per varroa female in the artificial cells treated (Mean) / Number of offspring per varroa female in the artificial cells treated: Example 5; for Inhibitory activity in respect of varroa reproduction: artificial cells, result in words; for Number of offspring per varroa female in the artificial cells treated (Mean) / Number of offspring per varroa female in the artificial cells treated: same procedure as Example 1; for Number of offspring per varroa female in the artificial cells treated (Mean): mean of three replications; for Number of offspring per varroa female in the artificial cells treated: single replications 1-3
Method: In Example 1, a chemical composition is made up of a solution of heptadecene in hexane, with a double bond in position 8 and cis configuration ([…]). The cis-8-heptadecene in a solution of hexane causes a reduction in reproduction, ie a reduction in the number of offspring produced by the Varroa destructor mite, raised in a laboratory environment, on bee larvae in gelatine cells. For verification of the activity of cis-8-C17H34, two groups of gelatine cells were prepared, with a diameter of 6.5 mm. In each of the two cells of the first group, 10 […] 100 ng of cis-8-heptadecene was deposited. This group was defined as the treated group. In the cells of the second group, 10 […] active compound was deposited. This group was defined as the control group. The substances were deposited into each cell using a micropipette. The solvent was left to evaporate and then one varroa and one bee larva from natural, just-capped cells were introduced into each cell in each of the groups. The varroa was thus cultivated on the bee larva, during the metamorphosis of the larva, as happens in nature. Cultivation took place at 35° C. and 75% relative humidity. After ten days Oust before the bee reached its adult state), the cells were opened and inspected by microscope and the offspring produced by each varroa female were counted. The experiment described above was conducted four times; in total, approximately 80 cells were used per group. Following the same procedure used in Example 1, a chemical composition made up of a solution of a heptadecene isomer as in Example 1, in this case the isomer with a double bond in position 6 (cis-6-C17H34), and a second composition containing a solution of cis-8-heptadecene (cis-8-C17H34) were applied.

Varroa destructor [2] = experiment: Inhibition of the reproduction of V. destructor in natural cells; conditions: Example 2, 10 days in hive
Method: Example 2 was conducted in the same way as Example 1, except for the fact that the V. destructor mite was cultivated on bee larvae in natural cells from a beehive. In this example, too, the effect of 8-heptadecene on the reduction in the mean number of offspring produced by a female V. destructor in cells of natural honeycomb, kept in the hive, was verified.
For verification of the activity of cis-8-C17H34, two groups of natural cells were prepared. In the cells of the first group, referred to as the treated group, 1 μl of acetone containing 100 ng of cis-8-heptadecene was deposited. In the cells of the second group, the control group, 1 μl of the solvent alone, ie acetone, was deposited. The natural cells were cells just capped with honeycomb taken from infested hives and the product was deposited via injection of the solution using a microsyringe through the cell cap. Following treatment, the honeycomb was returned to the hive from which it was taken. After ten days, the honeycombs used for the experiment were brought to the laboratory; both the treated and control cells were opened and inspected. In the infested cells, the mean number of offspring produced by each varroa was counted. The experiment was replicated six times: in total, approximately 140 infested cells were examined for each group.

Varroa destructor [3] = experiment: Inhibition of the reproduction of V. destructor via dispensing of cis-8-heptadecene in bee colonies; conditions: for Number of offspring of V. destructor inside the capped cells of Group B (10 μg) / Number of offspring of V. destructor inside the capped cells of Group A (100 μg): changed weekly
Method: In Example 3, ten nuclei were prepared, ie bee colonies with a reduced number of individuals, in the order of several thousand. Each nucleus was placed in a hive with dimensions smaller than those of a standard hive. These nuclei were divided into three groups—A and B, each with three nuclei, and C, with four nuclei.
Into each hive, a dispensing mechanism comprising a nylon grid, with a 100 μm mesh, square and with a side measurement of 10 cm, supported by a sheet of aluminium, was introduced. Solutions of cis-8-heptadecene in various concentrations in 100 μl of hexane were placed on each of these grids. The solvent was left to evaporate before each test. Group A was treated with 100 μg of cis-8-C17H34 in 100 μl of hexane, Group B with 10 μg of cis-8-C17H34 in […], and Group C with 100 μl of hexane without the addition of cis-8-C17H34 (control grou). The dispensing mchanism was changed in each hive each week; and treatment lasted for three weeks. At the end of the test, the number of V. destructor individuals present on the adult bees and in the brood cells was determined. The brood cells were removed from the hives, opened and inspected. Finally, the V. destructor individuals killed by the treatment were counted. The numbers of offspring of the V. destructor individuals present in the brood cells were calculated, separately for each developmental stage of the bees, and specifically pink-eyed pupae (pp), black-eyed pupae (pd) and pigmented pupae and adult bees (ppd).

SMILES: CCCCC/C=C\CCCCCCCCCC [cis-6-heptadecene]
- Inhibitory activity in respect of varroa reproduction (Varroa destructor [1]): demonstrated inhibitory activity
- Number of offspring per varroa female in the artificial cells treated (Mean) (Varroa destructor [1]): 2.1
- Number of offspring per varroa female in the artificial cells treated (Varroa destructor [1]; listed as cis-6-C17H34): 2.4 and 2.3 and 1.7

SMILES: CCCCCCC/C=C\CCCCCCCC [cis-8-heptadecene]
- Number of offspring per varroa female in the artificial cells treated with cis-8-heptadecene (Mean) (Varroa destructor [1]; Example 1, 100 ng per gelatine cell, 10 days, mean of four replications): 1.7
- Inhibitory activity in respect of varroa reproduction (Varroa destructor [1]): demonstrated inhibitory activity
- Number of offspring per varroa female in the artificial cells treated (Mean) (Varroa destructor [1]): 1.9
- Number of offspring per varroa female in the artificial cells treated (Varroa destructor [1]; listed as cis-8-C17H34): 2.0 and 1.5
- Number of offspring per varroa female in the natural cells treated with cis-8-heptadecene (Varroa destructor [2]; 100 ng in 1 μl acetone per natural capped cell, single replications 1-6): 3.2 and 2.5 and 3.6 and 3.1 and 3.7
- Number of offspring per varroa female in the natural cells treated with cis-8-heptadecene (Mean) (Varroa destructor [2]; 100 ng per natural capped cell, mean of six replications): 3.2
- Number of offspring of V. destructor inside the capped cells of Group B (10 μg) (Varroa destructor [3]; 10 μg per dispenser, three weeks, PD: black-eyed pupae): 2.65
- Number of offspring of V. destructor inside the capped cells of Group B (10 μg) (Varroa destructor [3]; 10 μg per dispenser, three weeks, PDD [sic]: pigmented pupae et adults): 3.20
- Number of offspring of V. destructor inside the capped cells of Group B (10 μg) (Varroa destructor [3]; 10 μg per dispenser, three weeks, PP: pink-eyed pupae): 2
- Percentage distribution of V. destructor in Group B (10 μg): Varroa in the reproductive phase (Varroa destructor [3]; 10 μg per dispenser, three weeks, adult female varroa in brood cells): 60 Percentage
- Percentage distribution of V. destructor in Group B (10 μg): Varroa in the phoretic phase (Varroa destructor [3]; 10 μg per dispenser, three weeks, adult female varroa on adult bees): 40 Percentage
- Number of offspring of V. destructor inside the capped cells of Group A (100 μg) (Varroa destructor [3]; 100 μg per dispenser, three weeks, PD: black-eyed pupae): 2.63
- Number of offspring of V. destructor inside the capped cells of Group A (100 μg) (Varroa destructor [3]; 100 μg per dispenser, three weeks, PDD [sic]: pigmented pupae et adults): 3.29
- Number of offspring of V. destructor inside the capped cells of Group A (100 μg) (Varroa destructor [3]; 100 μg per dispenser, three weeks, PP: pink-eyed pupae): 2
- Percentage distribution of V. destructor in Group A (100 μg): Varroa in the reproductive phase (Varroa destructor [3]; 100 μg per dispenser, three weeks, adult female varroa in brood cells): 50 Percentage
- Percentage distribution of V. destructor in Group A (100 μg): Varroa in the phoretic phase (Varroa destructor [3]; 100 μg per dispenser, three weeks, adult female varroa on adult bees): 50 Percentage
- Reproduction of V. destructor in the cells of the hives (Varroa destructor [3]; Groups A (100 μg) and B (10 μg), as from the black-eyed pupa stage (pd), result in words): reduction, albeit modest

From patent US20050048093A1, “Methods and reagents for the control of infestations of parasites” (priority 2001, published 2005)
